{
  "source": "patent US5633003A",
  "about": "“Use of intratracheally administered hyaluronic acid to ameliorate emphysema” (priority 1994, dated 1997)",
  "key": {"[1]": {"system": "elastase-induced emphysema", "experiment": "Hyaluronidase-elastase model, mean linear intercept measurement of air-space size", "type": "in vivo, Syrian hamsters", "experimental": "To determine the effects of hyaluronidase on elastase-induced emphysema, Syrian hamsters received intratracheal instillments of bovine testicular hyaluronidase and, 24 hours later, porcine pancreatic elastase. Controls received: 1) saline followed by elastase, 2) elastase followed by hyaluronidase, and 3) saline followed by saline. Air-space enlargement was measured one week later, using the mean linear intercept method (8). Changes in lung elastin content were determined at 24 and 48 hours by quantifying elastin-specific desmosine and isodesmosine cross-links.\nFemale Syrian hamsters, weighing approximately 100 gms each, were anesthetized by intramuscular injection of ketamine hydrochloride (10 mg in 0.1 ml). The animals were then placed on a rodent surgical table (Harvard Bioscience, South Natick, Mass.) and restrained with elastic bands. The neck fur was shaved with a scalpel and a 2-cm vertical incision was made through the skin and subcutaneous fat. The underlying muscle was then cut to expose the trachea. A 26-gauge needle mounted on a 1-ml syringe was placed inside the tracheal lumen and 900 unite of highly purified bovine testicular hyaluronidase (Sigma Chemical Co., St. Louis, Mo.), dissolved in 0.3 ml normal saline solution, were delivered to the lungs in small increments. Twenty-four hours later, 20 units of porcine pancreatic elastase (Elastin Products, Pacific, Mo.), dissolved in 0.2 ml saline solution, were instilled by the same method. The incision was then closed with several sutures."}, "3H-elastin": {"system": "3H-elastin", "conditions": "incubation with 3H-elastin; cited from earlier work"}, "lung air-space": {"system": "lung air-space", "conditions": "hyaluronidase alone; cited from earlier work"}, "pancreatic elastase": {"system": "pancreatic elastase", "experiment": "Measurement of elastase inhibitory capacity of hyaluronic acid (release of radioactivity from 3H-elastin)", "type": "biochemical, porcine", "conditions": "1, 10, 100 μg hyaluronic acid, 1 μg elastase, pH 8.0, 37° C., 22 hours, preincubated with elastase or 3H-elastin", "experimental": "(§1) To test the possibility that addition of hyaluronic acid may inhibit air-space enlargement, Syrian hamsters were instilled with elastase intratracheally, then immediately given 1 mg of bovine tracheal hyaluronic acid by the same route. Controls received elastase followed by saline alone. Changes in air-space size were evaluated one week later, using the mean linear intercept method (8). To determine whether hyaluronic acid has elastase inhibitory capacity, it was incubated with pancreatic elastase in the presence of ^3 H-elastin. Controls contained elastase and ^3 H-elastin alone.\nVarious amounts of hyaluronic acid (1,10,100 μg) were incubated with pancreatic elastase (1 μg) and ^3 H-elastin in 0.2M Tris buffer, pH 8.0, at 37° C. for 22 hours (7,10). Hyaluronic acid was preincubated with either elastase or ^3 H-elastin for 10 minutes prior to the start of the assay. This was done to allow for the possible binding of one component to another. Following incubation, the samples were filtered, combined with scintillation fluid, and measured for radioactivity. The results were adjusted for nonspecific release of radioactivity and expressed as net counts per minute."}, "lungs": {"system": "lungs", "conditions": "hamster, in vivo", "source_text": "One week after completion of the enzyme instillments, the hamsters were sacrificed by intraperitoneal injection of chloral hydrate. Their lungs were then fixed in-situ by inserting a catheter into the tracheas and allowing 10% neutral-buffered formalin to inflate the tissues at a pressure of 20 cm H2 O. Two hours later, the catheter was removed and the trachea was tied off to minimize deflation. both the lungs and heart were removed from the chest as a single block and additionally fixed in 10% formalin for several days. The lungs were then dissected free of extrapulmonary structures, sectioned randomly, and entirely submitted for histological processing."}, "[2]": {"system": "elastase-induced emphysema", "experiment": "Hyaluronic acid-elastase model, mean linear intercept measurement of air-space size", "type": "in vivo, Syrian hamsters", "conditions": "1 week", "experimental": "as §1\nFollowing intratracheal administration of 20 units of pancreatic elastase (see above procedure), hamsters immediately received, by the same route, 1 mg of bovine tracheal hyaluronic acid (Sigma Chemical Co., St. Louis, Mo.), dissolved in 0.2 ml of saline solution."}},
  "note": "“Also recorded” adds a separate entry of the source.",
  "data": [
    {"substance": "hyaluronidase", "values": [
      {"measurement": "mean linear intercept value", "setting": "[1]; elastase followed by hyaluronidase (reversed order), 1 week", "result": 95.3, "unit": "um"},
      {"measurement": "mean linear intercept value", "setting": "[1]; hyaluronidase 900 units intratracheally 24 hours prior to elastase, 1 week", "result": 128, "unit": "um"},
      {"measurement": "effect of hyaluronidase on air-space enlargement", "setting": "[1]; order of enzyme administration reversed (elastase then hyaluronidase)", "result": "abolished this effect; also recorded: extinguished"},
      {"measurement": "elastase-induced air-space enlargement", "setting": "[1]; pre-treatment with hyaluronidase, then elastase, 1 week", "result": "significantly increased elastase-induced air-space enlargement; also recorded: markedly enhanced"},
      {"measurement": "elastase activity of the hyaluronidase preparation", "setting": "3H-elastin", "result": "no elastase activity"},
      {"measurement": "air-space dilation", "setting": "lung air-space", "result": "does not cause significant air-space dilation"}
    ]},
    {"substance": "hyaluronic acid", "values": [
      {"measurement": "pancreatic elastase activity (release of radioactivity from 3H-elastin)", "setting": "pancreatic elastase", "result": "no elastase inhibitory capacity; also recorded: did not reduce ^3 H-elastin breakdown, but instead caused a marked increase in the release of radioactivity; also recorded: does not prevent elastin from being degraded by elastase in-vitro"},
      {"measurement": "pancreatic elastase activity (release of radioactivity from 3H-elastin)", "setting": "pancreatic elastase; listed as Hyaluronic acid", "result": "enhanced, rather than inhibited, pancreatic elastase activity"},
      {"measurement": "histological changes of the lungs", "setting": "lungs", "result": "No specific changes"},
      {"measurement": "mean linear intercept (air-space size)", "setting": "[2]; 1 mg hyaluronic acid intratracheally immediately after 20 units elastase, control elastase then saline 122 um", "result": 82, "unit": "um"},
      {"measurement": "air-space enlargement", "setting": "[2]; hyaluronic acid intratracheally immediately after elastase, vs elastase followed by saline", "result": "significantly reduced the amount of air-space enlargement; also recorded: marked decrease in air-space enlargement; also recorded: marked reduction in air-space enlargement"}
    ]},
    {"substance": "elastase: porcine pancreatic elastase (Elastin Products), used to induce emphysema", "values": [
      {"measurement": "mean linear intercept value", "setting": "[1]; saline followed 24 hours later by elastase 20 units (model control), 1 week", "result": 100, "unit": "um"},
      {"measurement": "mean linear intercept (air-space size)", "setting": "[2]; elastase followed immediately by saline (model control)", "result": 122, "unit": "um"}
    ]}
  ]
}
